Assay results reported in US20110171294A1, “Enzyme composition and application thereof in the treatment of pancreatic insufficiency” (DSM IP ASSETS B.V., priority 2008, published 2011).
Non-standard residues stand in square brackets, D forms with d. Residues, ends and D or L forms follow the SMILES beside them. *: point of attachment. Sta = CC(C)C[C@H](N)[C@@H](O)CC(=O)O; Isovaleryl = CC(C)CC(=O)*

Key:
[1] = tested on: proline specific protease; assay: Effect of pepstatin on the proline specific protease; assay type: biochemical, Aspergillus niger; conditions: pepstatin 1.67 microgram/ml
Protocol: Prerequisite for a successful enzyme therapy according to the present application is an efficient degradation of dietary proteinaceous material in the stomach. […] Citrate/HCl buffers of 0.2 mol/l were used for obtaining the required acid pH conditions. […] Residual activities of the proline specific protease were measured kinetically at 405 nm using the synthetic substrates Ala-Ala-Pro-pNA (Bachem, Switzerland). […] Absorbance was measured kinetically for 10 min at 405 nm at 30° C. making use of a TECAN Genios MTP Reader (Salzburg, Vienna).

Sodium caseinate = assay: Casein hydrolysis under simulated stomach conditions (visual impression, di-/tripeptides, free amino acids); assay type: biochemical; conditions: 2.5 mg/ml caseinate suspension, pH 4.0, 37 degrees C., 0.25 mg/ml of each enzyme

Compound | inhibitory effect on the proline specific protease [1] | Visual impression after 45″ (Sodium caseinate) | Visual impression after 90″ (Sodium caseinate)
CC(C)CC(=O)N[C@H](C(=O)N[C@H](C(=O)N[C@@H](CC(C)C)[C@@H](O)CC(=O)N[C@@H](C)C(=O)N[C@@H](CC(C)C)[C@@H](O)CC(=O)O)C(C)C)C(C)C [pepstatin, Pepstatin] (Isovaleryl-VV[Sta]A[Sta]-OH) | no inhibitory effect | – | –
Pepsin: gastric aspartic endoprotease (EC 3.4.23.1) from porcine stomach mucosa, Sigma | – | turbid | clear
